Measured values from article PMC4454674, “Functional Coupling of Duplex Translocation to DNA Cleavage in a Type I Restriction Enzyme” (PLoS ONE, 2015).

Target: T1, EcoR124I (HsdR reconstituted with HsdS-HsdM2 methylase) (Escherichia coli, UniProt P10486)
T1 construct: holoenzyme reconstituted from purified HsdR (pTrcR124) and EcoR124I methylase HsdS-HsdM2 (pJS4M, JM109(DE3)), on plasmid DNA with one site; with Type I restriction enzyme EcoR124I/EcoR124II methylase subunit; Type I restriction enzyme EcoR124I specificity subunit
T1 sequence (P10486 1-1038): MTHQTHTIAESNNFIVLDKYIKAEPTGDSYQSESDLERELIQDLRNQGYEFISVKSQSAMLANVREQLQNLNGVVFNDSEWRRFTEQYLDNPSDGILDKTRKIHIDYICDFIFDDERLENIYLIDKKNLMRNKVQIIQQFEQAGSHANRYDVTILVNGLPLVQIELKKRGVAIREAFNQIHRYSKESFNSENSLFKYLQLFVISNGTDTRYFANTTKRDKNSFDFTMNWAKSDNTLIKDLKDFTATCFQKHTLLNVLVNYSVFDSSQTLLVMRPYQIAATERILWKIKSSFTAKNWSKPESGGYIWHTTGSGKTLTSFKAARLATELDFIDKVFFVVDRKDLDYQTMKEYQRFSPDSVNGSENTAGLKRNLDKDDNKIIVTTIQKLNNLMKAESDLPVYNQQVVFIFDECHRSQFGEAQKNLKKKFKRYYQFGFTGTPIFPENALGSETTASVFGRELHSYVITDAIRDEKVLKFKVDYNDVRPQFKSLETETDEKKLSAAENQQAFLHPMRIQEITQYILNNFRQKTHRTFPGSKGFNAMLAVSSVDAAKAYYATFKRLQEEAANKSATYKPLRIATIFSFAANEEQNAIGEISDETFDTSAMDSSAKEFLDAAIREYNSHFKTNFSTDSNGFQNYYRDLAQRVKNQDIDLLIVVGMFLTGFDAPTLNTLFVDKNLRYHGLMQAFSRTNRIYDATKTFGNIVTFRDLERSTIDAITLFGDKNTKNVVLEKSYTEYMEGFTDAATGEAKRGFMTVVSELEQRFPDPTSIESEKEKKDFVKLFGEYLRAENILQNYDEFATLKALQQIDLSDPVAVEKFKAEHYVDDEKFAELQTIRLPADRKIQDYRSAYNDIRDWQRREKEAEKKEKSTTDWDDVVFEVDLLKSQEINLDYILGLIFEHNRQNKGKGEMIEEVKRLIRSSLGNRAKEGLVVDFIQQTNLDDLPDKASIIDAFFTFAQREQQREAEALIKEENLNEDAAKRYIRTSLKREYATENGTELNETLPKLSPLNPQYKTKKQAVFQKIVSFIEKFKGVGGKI
T1 sequence (P10485 1-404 partner): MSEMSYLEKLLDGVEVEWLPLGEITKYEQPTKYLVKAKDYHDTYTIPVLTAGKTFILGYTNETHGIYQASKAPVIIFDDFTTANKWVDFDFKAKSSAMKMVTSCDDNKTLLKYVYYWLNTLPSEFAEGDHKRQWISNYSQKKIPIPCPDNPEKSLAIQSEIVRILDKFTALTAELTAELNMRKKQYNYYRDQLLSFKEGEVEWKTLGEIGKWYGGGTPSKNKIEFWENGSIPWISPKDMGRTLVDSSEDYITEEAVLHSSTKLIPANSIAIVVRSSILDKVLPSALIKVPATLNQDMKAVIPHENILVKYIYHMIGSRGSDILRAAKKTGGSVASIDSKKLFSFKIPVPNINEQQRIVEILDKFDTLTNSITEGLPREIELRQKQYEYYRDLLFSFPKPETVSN
T1 sequence (P10484 1-520 partner): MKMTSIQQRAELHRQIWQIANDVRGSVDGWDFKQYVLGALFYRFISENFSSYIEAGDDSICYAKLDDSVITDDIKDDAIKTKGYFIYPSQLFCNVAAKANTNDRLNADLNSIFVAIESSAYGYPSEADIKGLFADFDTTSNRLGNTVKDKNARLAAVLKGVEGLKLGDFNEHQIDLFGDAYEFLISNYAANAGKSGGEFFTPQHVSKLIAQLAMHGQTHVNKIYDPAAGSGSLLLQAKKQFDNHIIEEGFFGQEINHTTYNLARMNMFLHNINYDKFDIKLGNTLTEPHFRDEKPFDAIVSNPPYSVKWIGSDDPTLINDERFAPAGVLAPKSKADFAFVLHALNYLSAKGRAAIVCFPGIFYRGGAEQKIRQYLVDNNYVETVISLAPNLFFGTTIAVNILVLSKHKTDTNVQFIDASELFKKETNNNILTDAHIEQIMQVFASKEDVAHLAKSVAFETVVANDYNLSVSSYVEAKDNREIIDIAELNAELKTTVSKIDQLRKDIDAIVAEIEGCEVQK
Assay: DNA-dependent ATPase, gamma-32P-ATP with TLC
Assay type: biochemical
Conditions: 2 mM ATP; 15 nM methylase, 90 nM HsdR, 90 nM plasmid DNA; 10 mM MgCl2; pH 7.9; 37 C; turnover only; gamma-32P-ATP tracer

## Nc1ncnc2c1ncn2[C@@H]1O[C@H](COP(=O)(O)OP(=O)(O)OP(=O)(O)O)[C@@H](O)[C@H]1O [ATP]
  DNA-dependent ATPase, gamma-32P-ATP with TLC: The results for the WT enzyme reproduce its previously reported ATPase activity
